One may read the MIC as the smallest concentration in the dilution series that meets the test's criterion for growth inhibition.

Test [1] has as its system P. aeruginosa strain AU1292. The experiment in a line: Viable cell count (CFU) with colistin and apyrase. The conditions noted are these: apyrase 2 U/ml; colistin at less than 20 μg/ml.
Protocol: P. aeruginosa strain AU1292 was grown in the presence of combinations of 0 and 2 U/ml of apyrase and approximately 0 to 20 μg/ml of colistin. After incubation, the numbers of viable cells were determined by counting the colony forming units (CFU) on the plate (data provided as CFU/ml).
The test system of test [2] is Burkholderia cepacia GIIIb AU0055. The experiment in a line: Viable cell count (CFU) with colistin and apyrase. As to conditions: apyrase 2 U/ml; colistin at less than 10 μg/ml.
Protocol: Burkholderia cepacia GIIIb AU0055 was grown in the presence of combinations of 0 and 2 U/ml of apyrase and approximately 0 to 20 μg/ml of colistin. After incubation, the numbers of viable cells were determined by counting the colony forming units (CFU) on the plate (data provided as CFU/ml).
In test [3] the test system is A. baumannii strain AC121. The test is described as follows: Viable cell count (CFU) with colistin and apyrase. As to conditions: apyrase 2 U/ml; colistin at less than 20 μg/ml; colistin-resistant strain.
Protocol: Approximately 10^5 to 10^6 CFU/ml of the colistin-resistant A. baumannii strain AC121 was grown in the presence of combinations of 0 and 2 U/ml of apyrase and approximately 0 to 20 μg/ml of colistin. After incubation, the numbers of viable cells were determined by counting the colony forming units (CFU) on the plate (data provided as CFU/ml).
Test [4] concerns A. baumannii DMC1. The experiment in a line: Mouse wound model, viable bacteria at burn sites 24 hours after burn. The conditions noted are these: C57BL/6 mice, colistin 4 μg/ml.
Protocol: In addition, experiments were performed to test the synergistic killing effects of colistin and apyrase in vivo. An established mouse wound model was used for this test.
Female pathogen-free C57BL/6 mice (Harlan, Indianapolis, Ind.), 12 weeks old, weighing ˜20-23 grams were used in all experiments. The skin over the lumbrosacral and back region was clipped using a 35-W model 5-55 E electrical clipper (Oyster-Golden A-S, Head no. 80, blade size 40) by using the method described by Ipaktchi et al. with slight modification. Two hundred microliters of a 0.9% saline suspension of A. baumannii DMC1 (1×10^6 cells/ml), which is a highly colistin resistant clinical strain, was used for wound infection experiments. Viable bacterial numbers were determined 24 hours after burn. The Student t-test was used for statistical analysis.
Experiments were carried out in four groups: (1) a control group (n=6), which contained neither apyrase nor colistin; (2) apyrase group (n=9), which contained apyrase (1 U/ml); (3) colistin group (n=9), which contained colistin (4 μg/ml); and (4) apyrase and colistin group (n=9), which was treated with the combination of apyrase (1 U/ml) and colistin (4 μg/ml). The treatment was applied immediately after inoculation. After 24 hours, the mice were given lethal IP injections of pentobarbital (150 mg/kg) and skin samples were collected using a scalpel and scissors.
Test [5] deals with P. aeruginosa strain AU8104. The test is described as follows: Viable cell count (CFU) with colistin and apyrase. The conditions noted are these: apyrase 2 U/ml; colistin at less than 10 μg/ml.
Protocol: P. aeruginosa strain AU8104 was grown in the presence of combinations of 0 and 2 U/ml of apyrase and approximately 0 to 20 μg/ml of colistin. After incubation, the numbers of viable cells were determined by counting the colony forming units (CFU) on the plate (data provided as CFU/ml).
The subject of test [6] is A. baumannii strain ATCC 19606. The test is described as follows: Viable cell count (CFU) with colistin and apyrase. The conditions noted are these: apyrase 1 and 2 U/ml; colistin 0.25 to 2 μg/ml; colistin alone at the same concentrations.
Protocol: Approximately 10^6 CFU/ml of A. baumannii strain ATCC 19606 was grown on solid medium culture plates in the presence of combinations of 0, 1, and 2 U/ml of apyrase and 0, 0.25, 0.5, 1, and 2 μg/ml of colistin. After incubation, the numbers of viable cells were determined by counting the colony forming units (CFU) on the plate (data provided as CFU/ml). […] In these Examples, the colistin is colistin sulfate salt, catalog number C4461 from Sigma-Aldrich (St. Louis, Mo.) and the apyrase is catalog number M0393L from New England BioLabs Inc. (Ipswich, Mass.).
Test [7] relates to Burkholderia cepacia GIIIa AU0019. The experiment in a line: Viable cell count (CFU) with colistin and apyrase. As to conditions: apyrase 2 U/ml; colistin at less than 10 μg/ml. The class given is cell-based.
The subject of test [8] is Burkholderia dolosa AU0589. The experiment in a line: Viable cell count (CFU) with colistin and apyrase. The conditions noted are these: apyrase 2 U/ml; colistin at less than 20 μg/ml.
Protocol: Burkholderia dolosa AU0589 was grown in the presence of combinations of 0 and 2 U/ml of apyrase and approximately 0 to 20 μg/ml of colistin. After incubation, the numbers of viable cells were determined by counting the colony forming units (CFU) on the plate (data provided as CFU/ml).
Test [9] has as its system P. aeruginosa strain AU7443, mucoid. The test is described as follows: Viable cell count (CFU) with colistin and apyrase. The conditions noted are these: apyrase 2 U/ml; colistin at less than 20 μg/ml.
Protocol: After incubation, the numbers of viable cells were determined by counting the colony forming units (CFU) on the plate (data provided as CFU/ml).
A further test deals with P. aeruginosa AU0584. The test is described as follows: Viable cell count (CFU) with colistin and apyrase. The conditions noted are these: apyrase 2 U/ml; colistin at less than 10 μg/ml.
For test [10], the system named is Burkholderia vietnamiensis AU10214. The experiment in a line: Viable cell count (CFU) with colistin and apyrase. As to conditions: apyrase 2 U/ml; colistin at less than 20 μg/ml.
Protocol: Burkholderia vietnamiensis AU10214 was grown in the presence of combinations of 0 and 2 U/ml of apyrase and approximately 0 to 20 μg/ml of colistin. After incubation, the numbers of viable cells were determined by counting the colony forming units (CFU) on the plate (data provided as CFU/ml).
Test [11] concerns Burkholderia cepacia GIIIb AU0062. The test is described as follows: Viable cell count (CFU) with colistin and apyrase. The conditions noted are these: apyrase 2 U/ml; colistin at less than 20 μg/ml.
A further test has as its system A. baumannii strain DMC1. The test is described as follows: Viable cell count (CFU) with colistin and apyrase. The conditions noted are these: apyrase 1 and 2 U/ml; colistin 4 to 32 μg/ml; colistin alone at the same concentrations.
For the next test, the system named is P. aeruginosa PAO300. The test is described as follows: MIC from dose-kill curves, colistin alone or with apyrase. The class given is cell-based. As to conditions: 4 hours at 37° C., apyrase 2 U/ml in the combination. How it is done:
(§1) Data were collected from systematic tests to investigate bacterial killing with colistin and apyrase combinations against ESKAPE bacteria in vitro. […] Dose-kill curves for 22 strains (colistin sensitive or resistant ˜10^6 CFU/ml) were generated after exposure to colistin at different concentrations by itself or in combination with apyrase (2 U/ml) for 4 hours at 37° C. Data were obtained from three independent experiments. […] The MIC of colistin and apyrase combinations was generally 2- to 8-fold lower in comparison to the MIC for colistin alone (FIG. 31 and Table 2). For Gram-positive strains, the MICs results obtained with colistin alone and with the combination of colistin and apyrase were very similar.

The next test concerns K. pneumonia AD. The description is as above. The class given is cell-based. As to conditions: 4 hours at 37° C., apyrase 2 U/ml in the combination. The method, then:
as §1

The test system of another test is B. multivorans AU0801. The description is as above. Format: cell-based. The conditions noted are these: 4 hours at 37° C., apyrase 2 U/ml in the combination. How it is done: as §1
Another test relates to E. coli K-12. Described as above. Format: cell-based. As to conditions: 4 hours at 37° C., apyrase 2 U/ml in the combination. The method, then:
as §1

A further test concerns A. baumannii AC285. Described as above. As to conditions: 4 hours at 37° C., apyrase 2 U/ml in the combination. The class given is cell-based. The method, then: as §1
In the next test the test system is P. aeruginosa AU7443. The description is as above. The conditions noted are these: 4 hours at 37° C., apyrase 2 U/ml in the combination. Format: cell-based. How it is done: as §1
Test [12] has as its system A. baumannii DMC1. The test is described as above. As to conditions: 4 hours at 37° C., apyrase 2 U/ml in the combination. Format: cell-based. How it is done: as §1
The next test deals with A. baumannii VBA9. The description is as above. Format: cell-based. The conditions noted are these: 4 hours at 37° C., apyrase 2 U/ml in the combination. How it is done: as §1
Another test relates to S. aureus ATCC 25923. The test is described as above. Format: cell-based. As to conditions: 4 hours at 37° C., apyrase 2 U/ml in the combination. The method, then: as §1
The test system of a further test is A. baumannii AC121. Described as above. As to conditions: 4 hours at 37° C., apyrase 2 U/ml in the combination. The class given is cell-based. The method, then:
as §1

The next test has as its system P. aeruginosa ATCC 27853. Described as above. The conditions noted are these: 4 hours at 37° C., apyrase 2 U/ml in the combination. Format: cell-based. The method, then:
as §1

For the next test, the system named is P. aeruginosa AU1292. Described as above. The conditions noted are these: 4 hours at 37° C., apyrase 2 U/ml in the combination. The class given is cell-based. How it is done:
as §1

The next test deals with A. baumannii ATCC 19606. The description is as above. Format: cell-based. The conditions noted are these: 4 hours at 37° C., apyrase 2 U/ml in the combination. How it is done:
as §1

The next test relates to A. baumannii ATCC DMC1. The test is described as follows: Mouse burn wound infection model, treatment 24 hours after inoculation. The conditions noted are these: treated 24 hours after inoculation, sampled 48 hours after the burn.
Test [13] relates to Burkholderia cepacia AU1114. The test is described as follows: Viable cell count (CFU) with colistin and apyrase. The conditions noted are these: apyrase 2 U/ml; colistin at less than 20 μg/ml.
Protocol: Burkholderia cepacia AU1114 was grown in the presence of combinations of 0 and 2 U/ml of apyrase and approximately 0 to 20 μg/ml of colistin. After incubation, the numbers of viable cells were determined by counting the colony forming units (CFU) on the plate (data provided as CFU/ml).
Test [14] relates to Burkholderia multivorans AU0801. The test is described as follows: Viable cell count (CFU) with colistin and apyrase. The conditions noted are these: apyrase 2 U/ml; colistin at less than 10 μg/ml.
Protocol: Burkholderia multivorans AU0801 was grown in the presence of combinations of 0 and 2 U/ml of apyrase and approximately 0 to 20 μg/ml of colistin. After incubation, the numbers of viable cells were determined by counting the colony forming units (CFU) on the plate (data provided as CFU/ml).
Test [15] relates to Burkholderia ambifaria AU5203. The test is described as follows: Viable cell count (CFU) with colistin and apyrase. The conditions noted are these: apyrase 2 U/ml; colistin at less than 20 μg/ml.
Protocol: Burkholderia ambifaria AU5203 was grown in the presence of combinations of 0 and 2 U/ml of apyrase and approximately 0 to 20 μg/ml of colistin. After incubation, the numbers of viable cells were determined by counting the colony forming units (CFU) on the plate (data provided as CFU/ml).
The nature of test [16]: Killing efficiency of antibacterial agents with apyrase (summary of the examples). Format: cell-based. As to conditions: in some instances. How it is done:
Embodiments of the technology relate to the surprising discovery that apyrase and antimicrobial agents act together synergistically. […] As such, the technology provides therapies in which antimicrobial agents are administered in lower doses (e.g., 0.01%, 0.1%, 1%, 5%, 10%, 20%, 50%, 75%, 90%, etc. of the standard recommended dosage) than in conventional technologies. Importantly, this reduces toxic side effects, if present, of antimicrobial agents in subjects and helps to prevent drug resistance of microbes. In addition, the technology provided herein comprising combined use of apyrase and antimicrobial agents provides the only treatment to kill some multiply-resistant strains of pathogens.

A further test has as its system bacterial culture. The experiment in a line: Growth of a bacterial culture (optical density at 600 nm) with apyrase. Format: cell-based. The conditions noted are these: presence vs absence of apyrase over 15 to 20 hours.
The test system of another test is MSCs. The test is described as follows: Osteogenic differentiation of MSCs after burn injury (alizarin red), burn mouse model. The class given is in vivo. The text has this: (§2) At the cellular level, research has shown that aberrant expression of BMPs in adipose-derived MSCs near the wound site stimulates osteogenic differentiation of multipotent cells. […] Alizarin red is used in to determine, quantitatively by colorimetry, the presence of calcific deposition by cells of an osteogenic lineage. As such, it is a marker of matrix mineralization, a crucial step towards the formation of calcified extracellular matrix associated with true bone. Thus, alizarin red staining indicates differentiation of cells to bone lineages.
(§3) Consequently, it is contemplated that decreasing inflammation at the burn site with apyrase—thus decreasing ATP concentrations, which leads to decreased MSC BMP-2 signaling and decreased osteogenic differentiation—alleviates heterotopic ossification at wound sites.

The subject of the next test is BMP-2 signaling. The test is described as follows: BMP-2 signaling of MSCs after burn injury, burn mouse model. As to conditions: apyrase at the burn site. Format: in vivo.
Text: as §2, §3

Where a SMILES comes first, the peptide text is derived from it. Bridges are numbered along the chain shown (N, C = ends). [ ]: non-standard residue; d: D form. The star is where a group is joined. Heptanoyl(5-Me) = CCC(C)CCCC(=O)*; Dab = NCC[C@H](N)C(=O)O

Protocol for A. baumannii ATCC DMC1: After a burn, A. baumannii ATCC DMC1 was inoculated on skin. After 24 hours, the wounds were treated with apyrase alone, colistin alone, or apyrase and colistin in combination. Skin samples were collected after another 24 hours and the CFU/g skin of A. baumannii ATCC DMC1 was determined.
Protocol for A. baumannii strain DMC1: Approximately 10^6 CFU/ml of A. baumannii strain DMC1 was grown on solid medium culture plates in the presence of combinations of 0, 1, and 2 U/ml of apyrase and 0, 4, 8, 16, and 32 μg/ml of colistin. After incubation, the numbers of viable cells were determined by counting the colony forming units (CFU) on the plate (data provided as CFU/ml).
Protocol for P. aeruginosa AU0584: P. aeruginosa AU0584 was grown in the presence of combinations of 0 and 2 U/ml of apyrase and approximately 0 to 20 μg/ml of colistin. After incubation, the numbers of viable cells were determined by counting the colony forming units (CFU) on the plate (data provided as CFU/ml).

With `CCC(C)CCCC(=O)N[C@@H](CCN)C(=O)N[C@H](C(=O)N[C@@H](CCN)C(=O)N[C@H]1CCNC(=O)[C@H]([C@@H](C)O)NC(=O)[C@H](CCN)NC(=O)[C@H](CCN)NC(=O)[C@H](CC(C)C)NC(=O)[C@@H](CC(C)C)NC(=O)[C@H](CCN)NC1=O)[C@@H](C)O` (stereo partly drawn) [Colistin, colistin] ({Heptanoyl(5-Me)}-[Dab]T[Dab][Dab][Dab][dL]L[Dab][Dab]T; lactam 4-C), the viable cells detected was 10^4 to 10^5 CFU/ml in test [1]; 10^4 to 10^5 CFU/ml in test [2]; 10^7 to 10^8 CFU/ml in test [3]; 10^5 to 10^6 CFU/ml in test [5]; 10^5 to 10^6 CFU/ml in test [7]; 10^6 to 10^7 CFU/ml in [8]. Further, the viable cells detected in test [9] is 10^4 to 10^5 CFU/ml; in the test with P. aeruginosa AU0584, 10^3 to 10^4 CFU/ml; in test [10], 10^5 to 10^6 CFU/ml; in test [11], 10^4 to 10^5 CFU/ml; in test [13], 10^5 to 10^6 CFU/ml; in test [14], 10^5 to 10^6 CFU/ml. Besides, in test [15], the viable cells detected was 10^5 to 10^6 CFU/ml. Besides, the “viable bacteria number recovered from burn sites, compared with the control group” value in the test on A. baumannii DMC1 [4] was “no significant difference”. The viable cell count result is “approximately 10^5 CFU/ml” in [6] and “approximately 10^7 CFU/ml” in the test on A. baumannii strain DMC1. For the same molecule, the MIC in the test with P. aeruginosa PAO300 is 2 µM; with K. pneumonia AD, 16 µM; in the test on B. multivorans AU0801 it was more than 16 µM; in the test on E. coli K-12, 2 µM; in the test with A. baumannii AC285 it was more than 32 µM; in the test on P. aeruginosa AU7443, more than 16 µM. Also, the MIC in the test with A. baumannii DMC1 [12] is more than 32 µM; in the test on A. baumannii VBA9, more than 32 µM; in the test on S. aureus ATCC 25923 it was more than 32 µM; in the test with A. baumannii AC121 it was more than 32 µM; in the test on P. aeruginosa ATCC 27853 it was 1 µM; in the test with P. aeruginosa AU1292, more than 16 µM. In the test with A. baumannii ATCC 19606, the MIC stood at 4 µM. In the test with A. baumannii ATCC DMC1, the “A. baumannii detected on skin” value was “approximately 10^8 CFU/g of skin”.

For apyrase, in test [16], the “increase of the killing efficiency of antibacterial agents” value is reported as 1000 times. The “growth of a bacterial culture (optical density at 600 nm)” value in the test on bacterial culture is on record as “does not affect bacterial growth”. Moreover, the “osteogenic differentiation of MSCs (alizarin red)” value in the test with MSCs (after burn injury and apyrase treatment) is listed as “significant decrease”. The “osteogenic capacity of the MSCs” value in the test with MSCs (apyrase at the burn site) was “decreased”. The “A. baumannii detected on skin” value in the test with A. baumannii ATCC DMC1 is on record as “approximately 10^8 CFU/g of skin”. The “level of BMP-2 signaling of the MSCs” value with BMP-2 signaling is on record as “decreased”.

The values are drawn from patent US20150273025A1, “APYRASE TREATMENTS” (THE REGENTS OF THE UNIVERSITY OF MICHIGAN, priority 2012, published 2015).
